PMC8151276, “An Integrated Approach toward NanoBRET Tracers for Analysis of GPCR Ligand Engagement” (Molecules, 2021)

How the values were obtained:
Assay type in all cases: binding
CCR6 = biological target: T1, CCR6 (Homo sapiens, UniProt P51684); assay: NanoBRET screen HiBiT-CCR6 in HEK293
T1 construct: purchased Promega (in-house HiBiT-GPCR construct library, NanoBRET)
T1 sequence (P51684 1-374): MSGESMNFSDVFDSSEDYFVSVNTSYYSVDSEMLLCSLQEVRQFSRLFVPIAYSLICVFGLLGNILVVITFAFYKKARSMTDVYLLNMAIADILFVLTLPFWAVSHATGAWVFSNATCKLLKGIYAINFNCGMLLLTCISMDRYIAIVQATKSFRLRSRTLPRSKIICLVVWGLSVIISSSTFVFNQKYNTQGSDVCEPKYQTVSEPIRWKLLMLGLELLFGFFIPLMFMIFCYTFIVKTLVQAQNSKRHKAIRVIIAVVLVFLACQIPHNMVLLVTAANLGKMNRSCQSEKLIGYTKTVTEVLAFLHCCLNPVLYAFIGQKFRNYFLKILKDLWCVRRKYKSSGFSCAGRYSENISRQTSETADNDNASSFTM
Description: (§1) Each tracer candidate was screened across the entire library of HiBiT-GPCR constructs using NanoBRET as the detection modality. As depicted in Figure 4A, the specificity of interactions was evaluated through decrease in BRET due to competitive displacement of a bound tracer by excess parental compound. Each tracer was analyzed for binding to each HiBiT-GPCR fusion in the absence and in the presence of competing parental compound. Briefly, HEK293 cells were transfected with HiBiT-GPCR constructs diluted into promoterless DNA to reduce expression and maximize translocation to the cell surface. Each tracer candidate was then screened at concentrations of 1 μM and 0.1 μM across cells expressing these fusions. Cells were treated for 1.5 h with tracer either alone or in the presence of 20 μM competing parental compound (i.e., control). BRET was measured upon addition of purified LgBiT and subsequent complementation with HiBiT genetically fused to a GPCR. The specificity of interactions was assessed through a decrease in BRET signal due to competitive displacement of the bound tracer. To further gauge the robustness of these interactions, the fold response over the control (i.e., BRETtracer/BRETcontrol) was calculated. We chose a 1.5-fold response, which translates to ≥7-fold signal over noise as the minimal threshold required to score an interaction as positive. […]. Below we highlight the screening results obtained for our exemplary fluorescent tracers based on Clozapine, Amitriptyline and AZD1283.
(§2) HiBiT-GPCR DNA constructs were diluted in 10 mM Tris pH 8 to a final concentration of 0.01 μg/μL, arrayed in 96-well plates and stored at −20 °C. For transfection, HEK293 cells were suspended in Opti-MEM (without phenol red) supplemented with 2% fetal bovine serum (Seradigm) and 100 units/mL penicillin–streptomycin (Gibco) at a final concentration of 220,000 cells/mL and dispensed into white 96-well plates at 90 μL/well. Subsequent transfections and screens were carried using an Agilent Bravo Automated Liquid Handling Platform. First, the 96-well HiBiT DNA arrays were diluted 25-fold in Opti-MEM (without serum or phenol red) to a final concentration of 0.0004 μg/μL and 20 μL of the diluted DNAs were transferred into new 96-well plates. Next, promoterless carrier DNA (1 μg/μL) was diluted 25-fold (0.04 μg/μL) and then dispensed into the diluted arrays at 20 μL/well. Following brief mixing, Viafect transfection reagent (Promega) diluted 16-fold into Opti-MEM was dispensed into the plates at 40 μL/well. After mixing by pipetting, plates were incubated for 10 min on the pipetting station deck. The DNA-transfection reagent complexes were then added to plates containing cells. To facilitate the screen, 10 μL of DNA-transfection reagent complexes were added in duplicates to the top 4 and bottom 4 rows, resulting in two identical 48-well arrays per plate. Plates with transfected cells were incubated for 18–20 h at 37 °C/5% CO2. A screen of each tracer across the entire library using two different concentrations requires duplicate plates of transfected cells. Depending on the number of tracers being screened, transfections can be scaled up using the same ratios. The next day, for each tracer, four 20× screening solutions in tracer dilution buffer (Promega) were prepared: two duplicates at final concentration of 20 μM and two duplicates at a final concentration of 2 μM. A competing unmodified compound was added to one of each duplicate at a final concentration of 400 μM. The four resulting solutions were diluted 4-fold in Opti-MEM without serum or phenol red to generate 5× solutions (5 µM and 0.5 µM tracer +/− 100 μM competing compound). To screen the library, a BioTek MultiFlo FX liquid dispenser was used to dispense 22.5 µL of tracer solution to the top 4 rows and 22.5 µL tracer + competing compound solution to the 4 bottom rows. Plates were briefly mixed on an orbital shaker and incubated for 1.5 h at room temperature. […]

NPY1R = biological target: T2, NPY1R (Homo sapiens, UniProt P25929); assay: NanoBRET screen HiBiT-NPY1R in HEK293
T2 construct: purchased Promega (in-house HiBiT-GPCR construct library, NanoBRET)
T2 sequence (P25929 1-384): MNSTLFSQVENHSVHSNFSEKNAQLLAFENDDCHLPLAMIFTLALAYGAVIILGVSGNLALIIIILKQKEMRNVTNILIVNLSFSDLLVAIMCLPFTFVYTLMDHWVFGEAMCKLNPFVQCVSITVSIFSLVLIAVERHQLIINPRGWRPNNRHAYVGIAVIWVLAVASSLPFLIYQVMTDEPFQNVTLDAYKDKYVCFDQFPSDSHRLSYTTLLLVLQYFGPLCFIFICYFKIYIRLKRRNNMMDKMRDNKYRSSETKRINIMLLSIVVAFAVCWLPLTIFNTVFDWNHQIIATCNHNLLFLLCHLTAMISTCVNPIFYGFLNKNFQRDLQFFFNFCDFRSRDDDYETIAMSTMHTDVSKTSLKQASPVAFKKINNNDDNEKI
Description: as §1, §2

PTGER3 = biological target: T3, PTGER3 (Homo sapiens, UniProt P43115); assay: NanoBRET screen HiBiT-PTGER3 in HEK293
T3 construct: purchased Promega (in-house HiBiT-GPCR construct library, NanoBRET)
T3 sequence (P43115 1-390): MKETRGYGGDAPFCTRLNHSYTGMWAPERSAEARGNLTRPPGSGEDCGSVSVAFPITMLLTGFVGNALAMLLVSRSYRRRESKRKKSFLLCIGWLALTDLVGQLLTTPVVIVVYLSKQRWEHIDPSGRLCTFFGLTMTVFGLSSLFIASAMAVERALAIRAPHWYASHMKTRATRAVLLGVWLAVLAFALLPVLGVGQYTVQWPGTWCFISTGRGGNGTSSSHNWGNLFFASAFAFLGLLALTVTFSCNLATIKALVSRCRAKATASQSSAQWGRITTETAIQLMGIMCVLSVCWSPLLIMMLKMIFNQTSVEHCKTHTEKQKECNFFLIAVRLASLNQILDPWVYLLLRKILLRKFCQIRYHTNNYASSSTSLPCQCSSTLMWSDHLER
Description: as §1, §2

| SMILES | NanoBRET Fold Response (CCR6; CCR6, tracer 0.1μM) | NanoBRET Fold Response (CCR6; CCR6, tracer 1μM) | NanoBRET Fold Response (NPY1R; NPY1R, tracer 0.1μM) | NanoBRET Fold Response (NPY1R; NPY1R, tracer 1μM) | NanoBRET Fold Response (PTGER3; PTGER3, tracer 0.1μM) | NanoBRET Fold Response (PTGER3; PTGER3, tracer 1μM) | also measured |
| --- | --- | --- | --- | --- | --- | --- | --- |
| O=C(CCOCCOCCOCCOCCNC(=O)CCc1ccc2n1[B-](F)(F)[N+]1=C(c3ccc[nH]3)C=CC1=C2)NCCCN1CCN(C2=Nc3cc(Cl)ccc3Nc3ccccc32)CC1 [Clozapine-a-2-NB590] | – | – | – | – | – | – | NanoBRET Fold Response (CCR6; CCR6, 0.1μM tracer): 1.05; NanoBRET Fold Response (CCR6; CCR6, 1μM tracer): 0.97; NanoBRET Fold Response (NPY1R; NPY1R, 0.1μM tracer): 0.97; NanoBRET Fold Response (NPY1R; NPY1R, 1μM tracer): 1.23; NanoBRET Fold Response (PTGER3; PTGER3, 0.1μM tracer): 1.03; NanoBRET Fold Response (PTGER3; PTGER3, 1μM tracer): 1.12 |
| CCCn1c(=O)c2[nH]c(-c3ccc(OCC(=O)NCCNC(=O)CCOCCNC(=O)c4ccc(CNC(=O)CCc5ccc6n5[B-](F)(F)[N+]5=C(c7ccc[nH]7)C=CC5=C6)cc4)cc3)nc2n(CCC)c1=O [XAC-3-NB590] | 1.00 | 1.26 | 1.01 | 0.95 | 0.97 | 1.05 | – |
| O=C(CCc1ccc2n1[B-](F)(F)[N+]1=C(c3ccc[nH]3)C=CC1=C2)NCc1ccc(C(=O)NCCOCCOCCNCC(O)COc2cccc3ccccc23)cc1 (stereo not drawn) [Propranolol-3-NB590] | – | – | – | – | – | – | NanoBRET Fold Response (CCR6; CCR6, 0.1μM): 0.95; NanoBRET Fold Response (CCR6; CCR6, 1μM): 1.02; NanoBRET Fold Response (NPY1R; NPY1R, 0.1μM): 1.08; NanoBRET Fold Response (NPY1R; NPY1R, 1μM): 0.99; NanoBRET Fold Response (PTGER3; PTGER3, 0.1μM): 1.04; NanoBRET Fold Response (PTGER3; PTGER3, 1μM): 1.08 |
| O=C(CCc1ccc2n1[B-](F)(F)[N+]1=C(c3ccc[nH]3)C=CC1=C2)NCc1ccc(C(=O)NCCOCCC(=O)N[C@@H]2CC[C@@]3(O)[C@H]4Cc5ccc(O)c6c5[C@@]3(CCN4CC3CC3)[C@H]2O6)cc1 [Naltrexone-3-NB590] | 0.94 | 1.24 | 0.93 | 1.02 | 0.94 | 0.79 | – |
| N#CN=C(NCCCOc1cccc(CN2CCCCC2)c1)NCCNC(=O)CCOCCOCCOCCOCCNC(=O)CCc1ccc2n1[B-](F)(F)[N+]1=C(c3ccc[nH]3)C=CC1=C2 [Aminopotentidine-2-NB590] | 0.96 | 1.00 | 0.99 | 1.01 | 1.01 | 1.01 | – |
| COc1ccc2c(n1)c(CCNC(C)=O)cn2CCNC(=O)CCc1ccc2n1[B-](F)(F)[N+]1=C(c3ccc[nH]3)C=CC1=C2 [Azamelatonin-1-NB590] | – | – | – | – | – | – | NanoBRET Fold Response (CCR6; 0.1μM tracer): 0.86; NanoBRET Fold Response (CCR6; 1μM tracer): 0.98; NanoBRET Fold Response (NPY1R; 0.1μM tracer): 0.93; NanoBRET Fold Response (NPY1R; 1μM tracer): 0.68; NanoBRET Fold Response (PTGER3; 0.1μM tracer): 1.00; NanoBRET Fold Response (PTGER3; 1μM tracer): 1.25 |
| CC(C)N(CC[C@H](c1ccccc1)c1cc(CCNC(=O)c2ccc(CNC(=O)CCc3ccc4n3[B-](F)(F)[N+]3=C(c5ccc[nH]5)C=CC3=C4)cc2)ccc1O)C(C)C [Tolterodine-BZ-NB590] | 1.05 | 1.03 | 1.15 | 0.95 | 0.99 | 1.07 | – |
| CN1CCN(C2=Nc3cc(Cl)ccc3Nc3ccc(CNC(=O)CCOCCOCCOCCOCCNC(=O)CCc4ccc5n4[B-](F)(F)[N+]4=C(c6ccc[nH]6)C=CC4=C5)cc32)CC1 [Clozapine-b-2-NB590] | – | – | – | – | – | – | NanoBRET Fold Response (CCR6; CCR6, 0.1μM tracer): 1.03; NanoBRET Fold Response (CCR6; CCR6, 1μM tracer): 0.97; NanoBRET Fold Response (NPY1R; NPY1R, 0.1μM tracer): 1.00; NanoBRET Fold Response (NPY1R; NPY1R, 1μM tracer): 1.03; NanoBRET Fold Response (PTGER3; PTGER3, 0.1μM tracer): 0.97; NanoBRET Fold Response (PTGER3; PTGER3, 1μM tracer): 0.97 |
